The assay relates to Human osteosarcoma U2OS cells. Description: Acidic vesicle formation (lysosome/autolysosome staining, LysoView 633 / LysoTracker Deep Red), stimulation of autophagy. The format is cell-based. The following applies: 24 hours; for activation at 10 µM: read-out: increase in acidic vesicle formation over the DMSO-treated control; for activation at 0.8 µM: read-out: Activity (percentage increase in acidic vesicle formation over the DMSO-treated control). The procedure: Lysosomes play a fundamental role in the autophagic pathway by fusing with autophagosomes and creating ‘autolysosomes’ in order to digest their contents. Stimulation of lysosome and autolysosome formation by a compound is indicative of a stimulation of autophagy. The ability of compounds to stimulate lysosome and autolysosome formation, and thus autophagy, in live cells was assessed via fluorescent microscopy using various fluorescent stains for labelling and tracking acidic organelles (including lysosomes and autolysosomes) such as: LysoView™ 650 (70059 and 70059-T, Biotium), LysoView™633 (70058 and 70058-T, Biotium) and LysoTracker™ Deep Red (L12492, ThermoFisher Scientific). The cellular phenotype was quantitatively assessed for the induction of acidic vesicle formation and compared to a non-treated control, thus providing a measure of the ability of the compound under investigation to stimulate autophagy.
Representative procedure using LysoView™633 dye or LysoTracker™ Deep Red dye: Human osteosarcoma U2OS cells (40,000 cells/well) were seeded in a 24 well glass bottom plate (Sensoplate, Greiner Bio-One) and were incubated overnight in a humidified atmosphere at 37° C. and 5% CO2. Cells were grown in DMEM (Gibco) supplemented with 10% Fetal Bovine Serum (FBS) and 100 units/ml penicillin and 100 μg/ml streptomycin (Invitrogen). After the attachment period, cells were treated with different compounds of interest (at various concentrations in DMSO) or DMSO (non-treated control) in cell culture medium and were incubated for 24 hours. Compound-containing medium was removed and cells were incubated with pre-warmed cell culture medium containing 1× LysoView™ 633 (70058 and 70058-T, Biotium) or 50 nM LysoTracker™ Deep Red (L12492, ThermoFisher Scientific) for 45 minutes at 37° C. Finally, cell nuclei were stained for 10 minutes using Hoechst 33342 (1 μg/mL) and then the medium was replaced with fresh medium. The 24 well plate was then fitted into a heated stage on the microscope and cells maintained at 37° C. Images were captured using appropriate filter set for Cy5 and DAPI detection with the EVOS M7000 Microscope (ThermoFisher Scientific). The cellular phenotype was visually assessed for the induction of acidic vesicle formation relative to the non-treated control; multiple images were acquired and analysed using ImageJ or Cell Profiler.

Counter-ions that a name gives are not always drawn.

`NC[C@@H]1CCN(CCc2cc(Cl)cc3c2OCO3)C1` [Compound 33, (S)-(1-(2-(6-chlorobenzo[d][1,3]dioxol-4-yl)ethyl)pyrrolidin-3-yl)methanamine hydrochloride]: the activation at 10 µM was ≥ 25%.
Take `CCOc1ccc(Cl)cc1CN1CCC[C@@H](CN)C1` [Compound 7, (S)-(1-(5-chloro-2-ethoxybenzyl)piperidin-3-yl)methanamine hydrochloride]: the activation at 0.8 µM is 30 to 50% and the activation at 10 µM was ≥ 25%.
Regarding `NC[C@@H]1CCCN(Cc2cc(Cl)ccc2OCC2CC2)C1` [Compound 8, (S)-(1-(5-chloro-2-(cyclopropylmethoxy)benzyl)piperidin-3-yl)methanamine hydrochloride], the activation at 0.8 µM fell in the range of 10 to 30% and the activation at 10 µM was ≥ 25%.
The corresponding values for `CCCOc1ccc(Cl)cc1CN1CC[C@@H](CN)C1` [Compound 3, (S)-(1-(5-chloro-2-propoxybenzyl)pyrrolidin-3-yl)methanamine hydrochloride] are 30 to 50% and ≥ 25%.
The matching figures for `CCOc1ccc(Cl)cc1CN1CC[C@H](CN)C1` [Compound 56, (R)-(1-(5-chloro-2-ethoxybenzyl)pyrrolidin-3-yl)methanamine hydrochloride]: > 100% and ≥ 25%.
The matching figures for `CCOc1ccc(CN2CCC(CN)C2)cc1Cl` (stereo not shown) [Compound 39, (1-(3-chloro-4-ethoxybenzyl)pyrrolidin-3-yl)methanamine hydrochloride]: 30 to 50% and ≥ 25%.
In the case of `CCOc1ccc(Cl)cc1CN1CC[C@@H](CN(C)C)C1` [Compound 50, (S)-1-(1-(5-chloro-2-ethoxybenzyl)pyrrolidin-3-yl)-N,N-dimethylmethanamine], the activation at 0.8 µM fell in the range of 10 to 30% and the activation at 10 µM was ≥ 25%.
`CCOc1ccc(Cl)cc1CN1CCNCC1` [Compound 40, 1-(5-chloro-2-ethoxybenzyl)piperazine hydrochloride]: the activation at 0.8 µM was in the range of 10 to 30% and the activation at 10 µM was ≥ 25%.
The matching figures for `CCCOc1ccc(Cl)cc1CCN1CC[C@@H](CN)C1` [Compound 48, (S)-(1-(5-chloro-2-propoxyphenethyl)pyrrolidin-3-yl)methanamine hydrochloride]: 10 to 30% and ≥ 25%.
In the case of `CCOc1ccc(Cl)cc1CN1CCN(C(C)C)CC1` [Compound 18, 1-(5-chloro-2-ethoxybenzyl)-4-isopropylpiperazine], the activation at 0.8 µM lay in the range of 10 to 30% and the activation at 10 µM was ≥ 25%.
The corresponding values for `CCOc1ccc(Cl)cc1CN1CC(CN)C1` [Compound 17, (1-(5-chloro-2-ethoxybenzyl)azetidin-3-yl)methanamine hydrochloride] are 50 to 100% and ≥ 25%.
The matching figures for `CCOc1ccc(C(F)(F)F)cc1CN1CCN[C@H](C)C1` [Compound 36, (R)-1-(2-ethoxy-5-(trifluoromethyl)benzyl)-3-methylpiperazine hydrochloride]: 10 to 30% and ≥ 25%.
Take `N#Cc1ccc(OCC2CC2)c(CCN2CC[C@@H](CN)C2)c1` [Compound 66, (S)-3-(2-(3-(aminomethyl)pyrrolidin-1-yl)ethyl)-4-(cyclopropylmethoxy)benzonitrile hydrochloride]: the activation at 10 µM is ≥ 25%.
Same read-out and setting: the result for `CCOc1cc(C#N)c(Cl)cc1CN1CC[C@@H](CN)C1` [Compound 61, (S)-4-((3-(aminomethyl)pyrrolidin-1-yl)methyl)-2-chloro-5-ethoxybenzonitrile hydrochloride] reads ≥ 25%; that for `CCOc1cc(F)c(F)cc1CN1CC[C@@H](CN)C1` [Compound 22, (S)-(1-(2-ethoxy-4,5-difluorobenzyl)pyrrolidin-3-yl)methanamine hydrochloride], ≥ 25%; that for `NC[C@@H]1CCN(CCc2ccc(OCC3CC3)c(Cl)c2)C1` [Compound 20, (S)-(1-(3-chloro-4-(cyclopropylmethoxy)phenethyl)pyrrolidin-3-yl)methanamine hydrochloride], ≥ 25%.
The same measure, in the same setting: the result for `CCOc1cc(F)c(F)cc1CN1CC[C@H](CN)C1` [Compound 21, (R)-(1-(2-ethoxy-4,5-difluorobenzyl)pyrrolidin-3-yl)methanamine hydrochloride] reads ≥ 25%.
As to `CCOc1cc(Cl)c(Cl)cc1CN1CCN[C@@H](C)C1` [Compound 37, (S)-1-(4,5-dichloro-2-ethoxybenzyl)-3-methylpiperazine hydrochloride], the activation at 0.8 µM lay within 10 to 30% and the activation at 10 µM was ≥ 25%.
The corresponding values for `CCOc1ccc(C(F)(F)F)cc1CCN1CC[C@@H](CN)C1` [Compound 42, (S)-(1-(2-ethoxy-5-(trifluoromethyl)phenethyl)pyrrolidin-3-yl)methanamine hydrochloride] are 50 to 100% and ≥ 25%.
The corresponding values for `CCOc1ccc(Cl)cc1CCN1CCC[C@@H](CN)C1` [Compound 45, (S)-(1-(5-chloro-2-ethoxyphenethyl)piperidin-3-yl)methanamine hydrochloride] are 50 to 100% and ≥ 25%.
Consider `CCOc1ccc(Cl)cc1CN1CCC[C@@H]1CN` [Compound 14, (R)-(1-(5-chloro-2-ethoxybenzyl)pyrrolidin-2-yl)methanamine hydrochloride], for which the activation at 10 µM is ≥ 25%.
With `NC[C@@H]1CCN(Cc2cc(Cl)ccc2OCC2CC2)C1` [Compound 4, (S)-(1-(5-chloro-2-(cyclopropylmethoxy)benzyl)pyrrolidin-3-yl)methanamine hydrochloride], the activation at 0.8 µM lay within 30 to 50% and the activation at 10 µM is ≥ 25%.
The matching figures for `CCOc1ccc(Cl)cc1CN1CCO[C@H](CN)C1` [Compound 29, (R)-(4-(5-chloro-2-ethoxybenzyl)morpholin-2-yl)methanamine hydrochloride]: 50 to 100% and ≥ 25%.
The corresponding values for `CCOc1ccc(OC(F)(F)F)cc1CN1CCN[C@@H](C)C1` [Compound 38, (S)-1-(2-ethoxy-5-(trifluoromethoxy)benzyl)-3-methylpiperazine hydrochloride] are 10 to 30% and ≥ 25%.
In the case of `NC[C@@H]1CCN(Cc2cc(Cl)ccc2OCCO)C1` [Compound 25, (S)-2-(2-((3-(aminomethyl)pyrrolidin-1-yl)methyl)-4-chlorophenoxy)ethan-1-ol hydrochloride], the activation at 0.8 µM lay in the range of 30 to 50% and the activation at 10 µM is ≥ 25%.
For `CCOc1cc(C#N)c(Cl)cc1CN1CC[C@H](CN)C1` [Compound 60, (R)-4-((3-(aminomethyl)pyrrolidin-1-yl)methyl)-2-chloro-5-ethoxybenzonitrile hydrochloride], the activation at 10 µM was ≥ 25%.
With `CC(C)Oc1ccc(Cl)cc1CN1CC[C@@H](CN)C1` [Compound 53, (S)-(1-(5-chloro-2-isopropoxybenzyl)pyrrolidin-3-yl)methanamine hydrochloride], the activation at 10 µM is ≥ 25%.
On the same count and under the same terms, the result for `CCOc1ccc(Cl)cc1CN1CCC[C@H](N)C1` [Compound 16, (S)-1-(5-chloro-2-ethoxybenzyl)piperidin-3-amine hydrochloride] reads ≥ 25%.

Source of the values: patent publication US20260193180A1, “AUTOPHAGY INDUCING COMPOUNDS AND USES THEREOF” (SAMSARA THERAPEUTICS INC., priority 2022, published 2026).
